Marks after values point to notes of the source that are not given here.
Tests used:
[1] = tested on: model of sephadex-induced eosinophilic lung inflammation in rats; assay: Content of cell elements in BAL in the model of sephadex-induced eosinophilic lung inflammation in rats; format: in vivo, male Wistar rats; settings: BAL 48 hours after sephadex
Procedure: The model of sephadex-induced eosinophilic lung inflammation in rats was realized by a standard method [Evaldsson C, Rydén I, Uppugunduri S. Isomaltitol exacerbates neutrophilia but reduces eosinophilia: new insights into the sephadex model of lung inflammation//Int Arch Allergy Immunol. 2011; 154(4):286-94]. Sephadex G-200 (Pharmacia, Sweden) was administered one time by inhalation to male Wistar rats at a dose of 5 mg/kg. The studied compounds were administered to the animals by the intragastric route four times: 24 hours and 1 hour before and 24 hours and 45 hours after administration of sephadex. The reference preparation, budesonide, was administered according to the same scheme, by inhalation at a dose of 0.5 mg/kg. Bronchoalveolar lavage was taken 48 hours after the inhalation of sephadex, and the total lymphocyte count and leukocyte formula in the lavage were determined. The number of rats in a group was 7 to 10.

[2] = tested on: model of bronchial asthma in guinea pigs; assay: Severity of bronchospasm in the model of bronchial asthma in guinea pigs; format: in vivo, guinea pig; settings: Experiment No. 2, 6 times, n = 8
Procedure: (§1) Bronchial asthma in guinea pigs was induced by a standard method [Ricciardolo F L, Nijkamp F, De Rose V, Folkerts G. The guinea pig as an animal model for asthma// Current Drug Targets. 2008 June; 9(6):452-65]. The animals were immunized by one parenteral administration of 0.5 mL of a solution comprising 100 μg/mL ovalbumin (Sigma) and 100 mg/mL aluminium hydroxide. Intact animals received a physiological saline solution in an amount of 0.5 mL.
(§2) On days 29, 30 and 31, hyperactivity of the respiratory airways was provoked by inhalation administration of ovalbumin in ascending concentrations of 0.1, 0.3, and 0.5 mg/mL on days 1, 2, and 3 of the provocation, respectively. The inhalation lasted 5 minutes or until asphyxia symptoms became apparent (fall to one side). On day 32, the animals received a challenging dose of ovalbumin (1 mg/mL) for 5 minutes, while assessing a bronchospastic reaction.
(§3) The studied compounds were administered to the animals once daily every day for 6 or 10 days; the administration was terminated two days before the administration of the challenging dose of antigen.
The bronchospastic reaction was assessed by a change in the rate and depth of the respiratory movements and by the asphyxia symptom such as fall to one side. Spirogram was registered by laboratory experimental equipment (ADInstruments, Australia), using a base recording station (PowerLab 8sp.) and software LabCart. The registration was made using airflow sensors for laboratory animals and a spirograph with an integrated amplifier (ADInstruments).
(§4) The study comprised 3 experiments, wherein the first one was directed to the evaluation of the effect of claimed compounds 1-6 on the cell composition of the BAL, the second and the third experiments were aimed at evaluating the effect of compounds 1 and 2 on the cell composition of the BAL, the cell composition of the blood, and on the bronchospasm severity.

[3] = tested on: model of bronchial asthma in guinea pigs; assay: Content of cell elements in the blood in the model of bronchial asthma in guinea pigs; format: in vivo, guinea pig; settings: Table 6 Experiment No. 2, 6 times, n = 8
Procedure: as §1, §2, §3
(§5) The bronchoalveolar lavage (BAL) and cardiac cavity blood were derived from the animals 24 hours after administration of the challenging dose. The BAL was collected under anesthesia by lavaging the lungs with 5 mL of a physiological saline solution heated to 37° C. through the trachea, using a syringe dosing device.
The blood was analyzed with a hemocytometer to determine leykoformula.
as §4

[4] = tested on: model of bronchial asthma in guinea pigs; assay: Content of cell elements in BAL in the model of bronchial asthma in guinea pigs; format: in vivo, guinea pig
Procedure: as §1, §2, §3, §5
The absolute number of cell elements in 1 μL of the lavage (cytosis) was counted in the bronchoalveolar lavage, using the Goryaev camera. Then, the BAL was centrifuged at 200 g for 10 minutes. The residue was used to prepare swabs that were fixed in methanol and stained according to Romanovsky-Giemsa to count endopulmonary cytogram.
as §4

[5] = Table 8, 0.5 mg/kg by inhalation, four times (reference preparation), n = 10
[6] = Table 4, 14 mg/kg, 10 times of administration, n = 9
[7] = Table 5 Experiment No. 2, 0.14 mg/kg, 6 times, n = 8
[8] = Table 5 Experiment No. 2, 1.4 mg/kg, 6 times, n = 8
[9] = Table 5 Experiment No. 2, 14 mg/kg, 6 times, n = 8
[10] = Table 9, 1.8 mg/kg intragastric, four times, n = 7
[11] = Table 9, 18 mg/kg intragastric, four times, n = 7

For CCCC1O[C@@H]2C[C@H]3[C@@H]4CCC5=CC(=O)C=C[C@]5(C)[C@H]4[C@@H](O)C[C@]3(C)[C@]2(C(=O)CO)O1 (some centres unmarked) [Budesonide, budesonide, reference compound], the “Eosinophils, content of cell elements in 1 μL of BAL” value (“Eosinophils, content” for short) [1, 5] was 204 ± 84*& in 1 μL of BAL, the “Leukocytes, content of cell elements in 1 μL of BAL” value (shortened to “Leukocytes, content”) [1, 5] was 1805 ± 318*& in 1 μL of BAL and the “Lymphocytes, content of cell elements in 1 μL of BAL” value (shortened to “Lymphocytes, content”) [1, 5] was 37 ± 10& in 1 μL of BAL. For the same compound, the “Macrophages, content of cell elements in 1 μL of BAL” value (“Macrophages, content” below) [1, 5] was 1230 ± 205 in 1 μL of BAL and the “Neutrophils, content of cell elements in 1 μL of BAL” value (from here on “Neutrophils, content”) [1, 5] was 334 ± 119 in 1 μL of BAL.

With O=C1CCCC(=O)N1CCc1ncc[nH]1 [Compound 2] the “The number of animals with moderate bronchospasm (without acute phase, with subacute phase, with breath management)” value ([2]; 0.14 mg/kg) was 1, the “The number of animals with moderate bronchospasm (without acute phase, with subacute phase, without breath management)” value ([2]; 0.14 mg/kg) was 1 and the “The number of animals with severe bronchospasm (in acute and subacute phase)” value (shortened to “The number … (in acute and subacute phase)”) ([2]; 0.14 mg/kg) was 2. The “The number of animals without bronchospasm” value ([2]; 0.14 mg/kg) was 4, the “The number of animals with moderate bronchospasm (without acute phase, with subacute phase, with breath management)” value ([2]; 1.4 mg/kg) was 0 and the “The number of animals with moderate bronchospasm (without acute phase, with subacute phase, without breath management)” value ([2]; 1.4 mg/kg) was 3. The “The number … (in acute and subacute phase)” value ([2]; 1.4 mg/kg) was 1, the “The number of animals without bronchospasm” value ([2]; 1.4 mg/kg) was 4 and the “The number of animals with moderate bronchospasm (without acute phase, with subacute phase, with breath management)” value ([2]; 14 mg/kg) was 1. The “The number of animals with moderate bronchospasm (without acute phase, with subacute phase, without breath management)” value ([2]; 14 mg/kg) was 0, the “The number … (in acute and subacute phase)” value ([2]; 14 mg/kg) was 2 and the “The number of animals without bronchospasm” value ([2]; 14 mg/kg) was 5. The “Banded neutrophils in the blood” value ([3]; 0.14 mg/kg) was 0.18 ± 0.04 10^9/L, the “Basophils in the blood” value ([3]; 0.14 mg/kg) was 0 ± 0 10^9/L and the “Cytosis in the blood” value ([3]; 0.14 mg/kg) was 7.80 ± 0.77*& 10^9/L. The “Eosinophils in the blood” value ([3]; 0.14 mg/kg) was 0.09 ± 0.03& 10^9/L, the “Lymphocytes in the blood” value ([3]; 0.14 mg/kg) was 3.95 ± 0.54& 10^9/L and the “Monocytes in the blood” value ([3]; 0.14 mg/kg) was 0.18 ± 0.06 10^9/L. The “Segmented neutrophils in the blood” value ([3]; 0.14 mg/kg) was 3.41 ± 0.41*& 10^9/L, the “Banded neutrophils in the blood” value ([3]; 1.4 mg/kg) was 0.21 ± 0.03 10^9/L and the “Basophils in the blood” value ([3]; 1.4 mg/kg) was 0 ± 0 10^9/L. For the same compound, the “Cytosis in the blood” value ([3]; 1.4 mg/kg) was 7.70 ± 0.40*& 10^9/L, the “Eosinophils in the blood” value ([3]; 1.4 mg/kg) was 0.1 ± 0.03& 10^9/L and the “Lymphocytes in the blood” value ([3]; 1.4 mg/kg) was 3.68 ± 0.25& 10^9/L. For the same compound, the “Monocytes in the blood” value ([3]; 1.4 mg/kg) was 0.18 ± 0.06 10^9/L, the “Segmented neutrophils in the blood” value ([3]; 1.4 mg/kg) was 3.53 ± 0.37*& 10^9/L and the “Banded neutrophils in the blood” value ([3]; 14 mg/kg) was 0.17 ± 0.04 10^9/L. The “Basophils in the blood” value ([3]; 14 mg/kg) was 0 ± 0 10^9/L, the “Cytosis in the blood” value ([3]; 14 mg/kg) was 6.93 ± 0.77& 10^9/L and the “Eosinophils in the blood” value ([3]; 14 mg/kg) was 0.1 ± 0.04& 10^9/L. The “Lymphocytes in the blood” value ([3]; 14 mg/kg) was 3.51 ± 0.41& 10^9/L, the “Monocytes in the blood” value ([3]; 14 mg/kg) was 0.24 ± 0.08 10^9/L and the “Segmented neutrophils in the blood” value ([3]; 14 mg/kg) was 2.9 ± 0.38& 10^9/L. The “Eosinophils in BAL” value [4, 6] was 1.30 ± 0.29*& 10^9/L, the “Lymphocytes in BAL” value [4, 6] was 1.53 ± 0.50* 10^9/L and the “Monocytes in BAL” value [4, 6] was 0.60 ± 0.14* 10^9/L. For the same compound, the “Neutrophils in BAL” value [4, 6] was 1.05 ± 0.16*& 10^9/L, the “Cytosis in BAL” value [4, 7] was 0.55 ± 0.09*& 10^9/L and the “Eosinophils in BAL” value [4, 7] was 0.20 ± 0.03*& 10^9/L. For the same compound, the “Lymphocytes in BAL” value [4, 7] was 0.07 ± 0.02& 10^9/L, the “Monocytes in BAL” value [4, 7] was 0.24 ± 0.06*& 10^9/L and the “Neutrophils in BAL” value [4, 7] was 0.03 ± 0.008*& 10^9/L. The “Cytosis in BAL” value [4, 8] was 0.63 ± 0.09*& 10^9/L, the “Eosinophils in BAL” value [4, 8] was 0.18 ± 0.02*& 10^9/L and the “Lymphocytes in BAL” value [4, 8] was 0.06 ± 0.01& 10^9/L. The “Monocytes in BAL” value [4, 8] was 0.29 ± 0.07* 10^9/L, the “Neutrophils in BAL” value [4, 8] was 0.09 ± 0.002 10^9/L and the “Cytosis in BAL” value [4, 9] was 0.56 ± 0.008*& 10^9/L. For the same compound, the “Eosinophils in BAL” value [4, 9] was 0.21 ± 0.06*& 10^9/L, the “Lymphocytes in BAL” value [4, 9] was 0.07 ± 0.009& 10^9/L and the “Monocytes in BAL” value [4, 9] was 0.22 ± 0.05*& 10^9/L. The “Neutrophils in BAL” value [4, 9] was 0.07 ± 0.002 10^9/L.

With CC1(C)CC(=O)N(CCc2cnc[nH]2)C(=O)C1 [Compound 3] the “Eosinophils in BAL” value [4, 6] was 0.93 ± 0.31*& 10^9/L, the “Lymphocytes in BAL” value [4, 6] was 0.72 ± 0.08* 10^9/L and the “Monocytes in BAL” value [4, 6] was 0.71 ± 0.18& 10^9/L. The “Neutrophils in BAL” value [4, 6] was 0.36 ± 0.08 10^9/L.

O=C1CCCC(=O)N1CCc1nc2ccccc2s1 [Compound 4, 1-(2-(1,3-benzothiazol-2-yl)ethyl)piperidine-2,6-dione] was tested, and the “Eosinophils in BAL” value [4, 6] was 1.25 ± 0.34*& 10^9/L, the “Lymphocytes in BAL” value [4, 6] was 0.81 ± 0.11* 10^9/L and the “Monocytes in BAL” value [4, 6] was 0.85 ± 0.19& 10^9/L. The “Neutrophils in BAL” value [4, 6] was 0.43 ± 0.12 10^9/L.

For O=C1CCCC(=O)N1CCc1nccs1 [Compound 6], the “Eosinophils in BAL” value [4, 6] was 0.60 ± 0.21*& 10^9/L, the “Lymphocytes in BAL” value [4, 6] was 1.03 ± 0.24* 10^9/L and the “Monocytes in BAL” value [4, 6] was 0.83 ± 0.18* 10^9/L. For the same compound, the “Neutrophils in BAL” value [4, 6] was 0.97 ± 0.28* 10^9/L.

In the case of Cl.O=C1CCCC(=O)N1CCC1CCCN1 (centres unmarked) [Compound 7], the “Eosinophils, content” value [1, 10] is reported as 28 ± 16& in 1 μL of BAL, the “Leukocytes, content” value [1, 10] is reported as 2242 ± 289& in 1 μL of BAL and the “Lymphocytes, content” value [1, 10] is reported as 16 ± 10 in 1 μL of BAL. For the same compound, the “Macrophages, content” value [1, 10] was 913 ± 235& in 1 μL of BAL, the “Neutrophils, content” value [1, 10] was 389 ± 188 in 1 μL of BAL and the “Eosinophils, content” value [1, 11] was 164 ± 62 & in 1 μL of BAL. For the same compound, the “Leukocytes, content” value [1, 11] was 1725 ± 345& in 1 μL of BAL, the “Lymphocytes, content” value [1, 11] was 29 ± 17 in 1 μL of BAL and the “Macrophages, content” value [1, 11] was 909 ± 299& in 1 μL of BAL. The “Neutrophils, content” value [1, 11] was 136 ± 50& in 1 μL of BAL.

With CC1CC(=O)N(CCc2cnc[nH]2)C(=O)C1 [Compound 8] the “Eosinophils, content” value [1, 10] was 202 ± 53*& in 1 μL of BAL, the “Leukocytes, content” value [1, 10] was 2796 ± 333 & in 1 μL of BAL and the “Lymphocytes, content” value [1, 10] was 82 ± 44 in 1 μL of BAL. For the same compound, the “Macrophages, content” value [1, 10] was 1860 ± 204& in 1 μL of BAL, the “Neutrophils, content” value [1, 10] was 303 ± 104& in 1 μL of BAL and the “Eosinophils, content” value [1, 11] was 318 ± 65*& in 1 μL of BAL. For the same compound, the “Leukocytes, content” value [1, 11] was 4250 ± 576 in 1 μL of BAL, the “Lymphocytes, content” value [1, 11] was 64 ± 45 in 1 μL of BAL and the “Macrophages, content” value [1, 11] was 2050 ± 462& in 1 μL of BAL. For the same compound, the “Neutrophils, content” value [1, 11] was 583 ± 180 in 1 μL of BAL.
